In one assay the test system is SK-N-MC cells. As to the kind of experiment: Apoptosis assay, annexin V–PE/SytoxBlue staining, flow cytometry. It counts as cell-based. Here is the method: Apoptosis of SK-N-MC cells was evaluated by detecting phosphatidylserines using R-phycoerythrin–annexin V conjugate (R-PE annexin V; Invitrogen, Carlsbad, CA, USA) and nucleic acids in dead cells using SytoxBlue Dead Cell Stain (Invitrogen, Carlsbad, CA, USA), according to the manufacturer's instructions. Briefly, 2.5 × 10^5 SK-N-MC cells were seeded in six-well plates. After 24 hours, cells were washed with PBS and treated with 8c and 13g in 10 and 20 μM concentrations for 24 and 48 hours. The medium with detached cells was then collected, and attached cells were harvested and combined with the detached cells. Following two washing steps with cold PBS, cells were resuspended in 100 μL annexin-binding buffer (Invitrogen, Carlsbad, CA, USA) containing 2.5 μL annexin V–R-PE solution and 750 nM SytoxBlue, and incubated in the dark for 15 minutes at room temperature. Before measurement, 200 μL of annexin-binding buffer was added. A minimum of 10 000 events were collected using a flow cytometer (Attune NxT; Invitrogen, Carlsbad, CA, USA). Annexin V (ANV)-/SYTOX Blue (SB)-indicates viable cells, ANV+/SB− indicates early apoptotic cells, ANV+/SB+ indicates late apoptotic cells, and ANV−/SB+ indicates necrotic cells.

The next assay deals with T1, full-length Hsp90β (Homo sapiens, UniProt P08238).
T1 construct: For the protein expression of full-length Hsp90β, we received plasmids as a kind gift; made in house; host or cells: Escherichia coli strain Rosetta
T1 sequence (P08238 whole entry): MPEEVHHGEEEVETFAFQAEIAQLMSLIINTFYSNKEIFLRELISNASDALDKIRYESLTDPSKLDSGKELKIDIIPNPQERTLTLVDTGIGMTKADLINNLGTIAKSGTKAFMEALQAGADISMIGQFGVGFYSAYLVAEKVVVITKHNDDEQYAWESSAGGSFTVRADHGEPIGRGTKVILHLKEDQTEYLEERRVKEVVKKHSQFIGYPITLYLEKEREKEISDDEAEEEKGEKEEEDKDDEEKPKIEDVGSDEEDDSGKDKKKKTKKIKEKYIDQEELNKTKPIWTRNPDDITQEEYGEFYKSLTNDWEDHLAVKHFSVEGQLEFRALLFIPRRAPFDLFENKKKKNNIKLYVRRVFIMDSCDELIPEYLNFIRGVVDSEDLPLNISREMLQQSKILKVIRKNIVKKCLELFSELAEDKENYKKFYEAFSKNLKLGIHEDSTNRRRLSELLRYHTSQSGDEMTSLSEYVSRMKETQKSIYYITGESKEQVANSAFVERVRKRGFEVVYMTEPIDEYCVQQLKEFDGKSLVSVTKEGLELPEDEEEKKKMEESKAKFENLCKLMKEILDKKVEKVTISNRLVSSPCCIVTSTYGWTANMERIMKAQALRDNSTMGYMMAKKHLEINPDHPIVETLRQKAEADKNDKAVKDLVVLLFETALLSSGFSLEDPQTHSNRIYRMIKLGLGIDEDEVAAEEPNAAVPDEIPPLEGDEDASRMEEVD
As to the kind of experiment: Microscale thermophoresis (MST) binding to Hsp90β. Particulars: full-length Hsp90β, absence of Cdc37. Here is the method: For the protein expression of full-length Hsp90β, we received plasmids as a kind gift from Dr Asta Zubriené at the Institute of Biotechnology, Vilnius University, Lithuania. Hsp90β, tagged with N-terminal 6×His-tag, was expressed in Escherichia coli strain Rosetta. The cells were cultured in LB media supplemented with kanamycin (50 μg mL^−1) and chloramphenicol (34 μg mL^−1) at 37 °C, and protein expression was initiated with 0.5 mM isopropyl β-D-1-thiogalactopyranoside (IPTG) when the OD600 reached 0.8. Following induction, the cells were incubated for 16 hours at 18 °C before being harvested by centrifugation. The cells were resuspended in a lysis buffer containing 40 mM potassium phosphate pH 8.0, 400 mM KCl, 10 mM imidazole, and protease inhibitors (Sigma), and then lysed by sonication. After centrifugation, the proteins were initially purified using a Ni^2+-affinity HisTrap column (GE Healthcare). Impurities were washed away with lysis buffer containing 20–40 mM imidazole, and Hsp90β was subsequently eluted with lysis buffer containing 300 mM imidazole. The purification process continued with size exclusion chromatography (SEC) using a Superdex-200 (16/600) column (GE Healthcare) and a running buffer of 50 mM Tris pH 7.5 at room temperature, 300 mM KCl. The purity of the fractions was confirmed by SDS-PAGE, and they were then concentrated. For the NMR experiments, Hsp90β was dialyzed against NMR buffer (50 mM potassium phosphate pD 7.5, 100 mM KCl, 2 mM DTT (98%, D10) in D2O) and subsequently frozen in liquid nitrogen.
The full-length Hsp90β was labeled using the Monolith His-Tag Labeling Kit RED-tris-NTA following the manufacturer's instructions (NanoTemper Technologies GmbH, Munich, Germany). The proteins were first diluted to a concentration of 8 nM in assay buffer (50 mM Tris–HCl, pH 7.4, containing 150 mM NaCl, 5% ethanol, and 10 mM MgCl2). To determine the Kd values, the proteins were mixed with the test compounds in a 1 : 1 ratio as stated in the manufacturers protocol. The final concentration of Hsp90β was 4 nM, with compounds added in the following ranges: 1000 μM to 5.86 μM for 8c; 312.5 μM to 0.15 μM for 13g and 125 μM to 3.91 μM for 1. Two independent Kd determinations were performed for compounds 8c and 13g. […] Next, Cdc37 (AR09008PUN, OriGene Technologies, Inc., Rockville, MD, USA) was acquired for the purpose of PPI inhibition evaluation between full-length Hsp90β and Cdc37. […] In all experiments the compounds were incubated with the proteins for 15 minutes in the dark at room temperature. The mixtures were then loaded into Monolith NT.115 Premium Capillaries (NanoTemper Technologies GmbH, Munich, Germany). Thermophoresis was induced at 1475 ± 15 nm and measured using a Monolith NT.115 pico instrument (NanoTemper Technologies GmbH, Munich, Germany). Measurements were conducted at ambient temperature (24–25 °C), with excitation power set to 20% and MST power set to 40%, and a laser on time of 5 seconds. To calculate the Kd values, the average fluorescence responses for each concentration were plotted against the logarithm of compound concentrate on using GraphPad Prism software (GraphPad Software, Inc., La Jolla, CA).
For orientation: MST reads how a fluorescent partner responds to local heating, with and without ligand.

Turning to `CN(CCOc1ccccc1)C(=O)c1csc(Nc2cc(N3CCNCC3)ncn2)n1` [Compound 8c, N-Methyl-N-(2-phenoxyethyl)-2-((6-(piperazin-1-yl)pyrimidin-4-yl)amino)thiazole-4-carboxamide], the “induction of apoptosis (qualitative)” value in the assay on SK-N-MC cells (10 μM and 20 μM, 24 and 48 hours) is “significantly induced apoptosis”. The “proportion of apoptotic cells” value with SK-N-MC cells (20 μM, 24 hours) is on record as 87.5%; in the assay on SK-N-MC cells (20 μM, 48 hours) it was 87.7%. For the same compound, the Kd (commonly the concentration at which binding is half-saturated) at full-length Hsp90β is 70.8 µM.

Take `O=C(NCCOc1ccccc1)c1ccc(Nc2cc(N3CCNCC3)ncn2)cc1` [Compound 13g, N-(2-Phenoxyethyl)-4-((6-(piperazin-1-yl)pyrimidin-4-yl)amino)benzamide]: the “proportion of apoptotic cells” value with SK-N-MC cells (10 μM, 24 hours) was determined as 27%; in the assay with SK-N-MC cells (10 μM, 48 hours), 11.4%; with SK-N-MC cells (20 μM, 24 hours), 42.8%; in the assay on SK-N-MC cells (20 μM, 48 hours), 56.8%. The same compound came in with a Kd at full-length Hsp90β of 73.3 µM.

The record behind these values is PMC11375794, “Discovery of new Hsp90–Cdc37 protein–protein interaction inhibitors: in silico screening and optimization of anticancer activity” (RSC Advances, 2024).
